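Here, GI50 denotes the concentration required for 50% inhibition of growth. TGI is the concentration that stops growth completely.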
Columns and labels:
Test in all cases: NCI tumour cell line growth inhibition, 384-well format
BT-549 breast = test system: BT-549 breast
RPMI-8226 leukemia = test system: RPMI-8226 leukemia
IGROV1 ovarian = test system: IGROV1 ovarian
MOLT-4 leukemia = test system: MOLT-4 leukemia
NCI-H322M lung = test system: NCI-H322M lung
MALME-3M melanoma = test system: MALME-3M melanoma
SNB-19 CNS = test system: SNB-19 CNS
SW-620 colon = test system: SW-620 colon
DU-145 prostate = test system: DU-145 prostate
K-562 leukemia = test system: K-562 leukemia
UACC-257 melanoma = test system: UACC-257 melanoma
HCT-116 colon = test system: HCT-116 colon
OVCAR-8 ovarian = test system: OVCAR-8 ovarian
SNB-75 CNS = test system: SNB-75 CNS
SK-MEL-28 melanoma = test system: SK-MEL-28 melanoma
KM12 colon = test system: KM12 colon
UACC-62 melanoma = test system: UACC-62 melanoma
OVCAR-4 ovarian = test system: OVCAR-4 ovarian
SF-295 CNS = test system: SF-295 CNS
MDA-MB-435 melanoma = test system: MDA-MB-435 melanoma
SK-MEL-5 melanoma = test system: SK-MEL-5 melanoma
M14 melanoma = test system: M14 melanoma
HS 578T breast = test system: HS 578T breast
NCI/ADR-RES ovarian = test system: NCI/ADR-RES ovarian
NCI-H226 lung = test system: NCI-H226 lung
COLO 205 colon = test system: COLO 205 colon
TK-10 renal = test system: TK-10 renal
NCI-H460 NSCLC = test system: NCI-H460 NSCLC
OVCAR-5 ovarian = test system: OVCAR-5 ovarian
SN12C renal = test system: SN12C renal

With `N#Cc1ccnc(N2C(=O)CC[C@H]2C(=O)N(c2cncc(F)c2)[C@H](C(=O)NC2CC(F)(F)C2)c2ccccc2Cl)c1` the GI50 (BT-549 breast) was > 100 µM, the TGI (BT-549 breast) was > 100 µM and the GI50 (RPMI-8226 leukemia) was > 100 µM. For the same compound, the TGI (RPMI-8226 leukemia) was > 100 µM, the GI50 (IGROV1 ovarian) was > 100 µM and the TGI (IGROV1 ovarian) was > 100 µM. For the same compound, the GI50 (MOLT-4 leukemia) was 30.3 µM, the TGI (MOLT-4 leukemia) was > 100 µM and the GI50 (NCI-H322M lung) was > 100 µM. The TGI (NCI-H322M lung) was > 100 µM, the GI50 (MALME-3M melanoma) was > 100 µM and the TGI (MALME-3M melanoma) was > 100 µM. For the same compound, the GI50 (SNB-19 CNS) was > 100 µM, the TGI (SNB-19 CNS) was > 100 µM and the GI50 (SW-620 colon) was > 100 µM. The TGI (SW-620 colon) was > 100 µM, the GI50 (DU-145 prostate) was > 100 µM and the TGI (DU-145 prostate) was > 100 µM. The GI50 (K-562 leukemia) was 99.2 µM, the TGI (K-562 leukemia) was > 100 µM and the GI50 (UACC-257 melanoma) was > 100 µM. For the same compound, the TGI (UACC-257 melanoma) was > 100 µM, the GI50 (HCT-116 colon) was 28.6 µM and the TGI (HCT-116 colon) was > 100 µM. The GI50 (OVCAR-8 ovarian) was > 100 µM, the TGI (OVCAR-8 ovarian) was > 100 µM and the GI50 (SNB-75 CNS) was > 100 µM. For the same compound, the TGI (SNB-75 CNS) was > 100 µM, the GI50 (SK-MEL-28 melanoma) was > 100 µM and the TGI (SK-MEL-28 melanoma) was > 100 µM. For the same compound, the GI50 (KM12 colon) was > 100 µM, the TGI (KM12 colon) was > 100 µM and the GI50 (UACC-62 melanoma) was > 100 µM. The TGI (UACC-62 melanoma) was > 100 µM, the GI50 (OVCAR-4 ovarian) was > 86.7 µM and the TGI (OVCAR-4 ovarian) was > 100 µM. For the same compound, the GI50 (SF-295 CNS) was > 100 µM, the TGI (SF-295 CNS) was > 100 µM and the GI50 (MDA-MB-435 melanoma) was > 100 µM. The TGI (MDA-MB-435 melanoma) was > 100 µM, the GI50 (SK-MEL-5 melanoma) was > 100 µM and the TGI (SK-MEL-5 melanoma) was > 100 µM. For the same compound, the GI50 (M14 melanoma) was > 100 µM, the TGI (M14 melanoma) was > 100 µM and the GI50 (HS 578T breast) was > 87.8 µM. For the same compound, the TGI (HS 578T breast) was > 100 µM, the GI50 (NCI/ADR-RES ovarian) was > 100 µM and the TGI (NCI/ADR-RES ovarian) was > 100 µM. The GI50 (NCI-H226 lung) was > 84.9 µM, the TGI (NCI-H226 lung) was > 100 µM and the GI50 (COLO 205 colon) was > 100 µM. The TGI (COLO 205 colon) was > 100 µM, the GI50 (TK-10 renal) was > 100 µM and the TGI (TK-10 renal) was > 100 µM. For the same compound, the GI50 (NCI-H460 NSCLC) was 89.7 µM, the TGI (NCI-H460 NSCLC) was > 100 µM and the GI50 (OVCAR-5 ovarian) was > 100 µM. For the same compound, the TGI (OVCAR-5 ovarian) was > 100 µM, the GI50 (SN12C renal) was > 100 µM and the TGI (SN12C renal) was > 100 µM.

From PubChem BioAssay (NCI)
